# Assay results as given in a melting point compilation (Tetko et al.; mined from patent text by program, amines drawn as free bases though some values may be those of a salt).
row,melting point [°C],SMILES
1,230,N#Cc1ccc(NC(=CNCC(=O)O)[N+](=O)[O-])cc1
2,176 to 178,N#Cc1cnc2c(Br)csc2c1Cl
3,152 to 154,Cc1ccc(CN2C(=O)[C@@H](NC(=O)Cc3ccccc3)[C@H]2CO)c(C)c1 (relative stereo)
4,71 to 72,CC1=N[C@H](c2ccccc2)COC1=O
5,195,CC(C)c1ccc(C2c3[nH]c4ccccc4c3CCN2C(=O)C=Cc2cccc([N+](=O)[O-])c2)cc1 (centres undefined)
6,80.5 to 82,CCOC(=O)C1(C(=O)Nc2ccc(C(F)(F)F)cc2)CC1
7,205 to 206,O=C1N(Cc2ccccn2)c2ccccc2C12COc1c2ccc2c1OCCO2 (centres undefined)
8,187 to 189,CCOC(=O)c1cn(C2CC2)c2c(F)c(Br)c(F)c(F)c2c1=O
9,135 to 136,CCC(CC)(C(=O)N(C)C)n1cc(C)c(-c2ccccc2)n1
10,> 320,O=C(O)Cn1c(=O)c(=O)[nH]c2cc([N+](=O)[O-])ccc21
11,173 to 174,Clc1ccn2ncc(Br)c2n1
12,265 to 267,CNc1ncc2c(=O)[nH]c(-c3ccccc3OC)nc2n1
13,213 to 214,COc1ccc(-c2c(C(=O)O)c(CSc3nccn3C)nc3cc(OC)c(OC)cc23)cc1OC
14,130,CNC(c1nc(-c2ccc3c(c2)Nc2ccccc2S3)cs1)C(C)C (centres undefined)
15,83 to 85,CCOC(=O)C(Cc1ccccc1)(C(=O)Nc1ccc(Cl)cc1)c1ccccc1 (centres undefined)
16,126 to 128,C/C(=C\c1ccc(OC(C)C)cc1Oc1ncc(C(F)(F)F)cc1Cl)C(=O)NS(=O)(=O)NCc1cnc(C)cn1
17,96,CCN(CC)C(=O)Oc1cc(-c2cccc(C(F)(F)F)c2)nc2ccccc12
18,180,O=C1CCC(c2ccccc2)(c2ccccc2)C2CN(C(Cc3ccccc3)=NCc3ccc(F)cc3)CC12 (centres undefined)
19,127 to 129,CC1(C2CCCC2)Cc2cc(OCCCCCC(=O)O)c(Cl)c(Cl)c2C1=O (centres undefined)
20,229 to 231,CSc1ncc2cc(-c3c(Cl)cccc3Cl)c(=NC(C)=O)n(C)c2n1
21,178 to 179,Cc1cc(C)cc(C(=O)c2c(C(C)C)c(=O)[nH]c(=O)n2C/C=C/CCl)c1
22,265,Cc1cc2cc(CN3CCC(C(N)=O)CC3)cnc2cc1NC(=O)c1ccc(-c2ccc(F)cc2)cc1
23,251 to 252,CC(C)(C)C(NC(=O)c1cccc(-c2ccco2)c1)Nc1c(Nc2cccnc2)c(=O)c1=O (centres undefined)
24,134,CCOP(=O)(OCC)C1(P(=O)(OCC)OCC)CC(C(=O)c2ccccc2)=NN1

row,melting point [°C],SMILES
1,208,CCOC(=O)NC(=O)c1nc(Cl)c(Cl)[nH]1
2,252 to 253,Nc1nnc(C(F)(F)F)c2c1cc1cccc(CCCN3CC4CCC(CC4)C3)n12
3,78,CC(O)CSC(=S)Nc1ccccn1 (centres undefined)
4,134 to 136,CCCCOCCOc1ccc(-c2ccc3c(c2)C=C(C(=O)Nc2ccc(S(=O)Cc4nccn4CCCC(=O)OCC)cc2)CCN3CC(C)C)cc1 (centres undefined)
5,167 to 170,COc1cc(COc2ccc(N)nn2)c2ccccc2c1
6,145 to 146,CCn1c2ccccc2c2cc(C=C(c3ccccc3)c3ccccc3)ccc21
7,140 to 142,CCNc1cc(OC)c(C(F)(F)F)cc1[N+](=O)[O-]
8,85 to 90,O=C1CCc2c1cccc2-c1ccccc1
9,156 to 158,COC(=O)CCc1oc2ccc(C#N)cc2c1C(=O)c1ccc(O)cc1
10,132,COC(=O)C(=O)Nc1ccc(-c2ccccc2S(=O)(=O)NC(C)(C)C)cc1
11,157 to 159,Cc1c(N2CC3(CC3)[C@](C)(N)C2)ccc2c(=O)c(C(=O)O)cn([C@@H]3C[C@@H]3F)c12
12,116,CCOC(=O)CC(=O)C=Cc1ccc([N+](=O)[O-])cc1
13,160 to 161,COc1ccc(S(=O)(=O)Nc2ccccc2NC(C)=O)cc1
14,104 to 106,CCOC(=O)COc1ccc2cc(Br)ccc2c1Br
15,148,CCOC(=O)NC(=O)N(O)Cc1c(C)n(C(=O)c2ccc(Cl)cc2)c2ccc(OC)cc12
16,72.9 to 73.6,C=CC(=O)O[C@H]1CC[C@H](c2cccc(F)c2F)CC1
17,121 to 122,O=C(Cc1ccccc1)N1CCCSC1=C[N+](=O)[O-]
18,69 to 71,O=C(NCCO[N+](=O)[O-])C1COc2ccccc2O1 (centres undefined)
19,135 to 136,C[C@@H](Cc1c2n(c3ccc(O)cc13)CCC2)NC(=O)OC(C)(C)C
20,197 to 198,O=C(CCl)Nc1ccc2c(c1NC(=O)c1cccc(F)c1)C(=O)c1ccccc1C2=O
21,68 to 69,C=CS(=O)(=O)NCc1ccc(OC)cc1
22,198 to 199,CCCCc1nc2c(N)nc3ccc(OCc4ccccc4)cc3c2n1C
23,262 to 265,O=S(=O)(c1ccc(O)cc1)N1c2ccc(Br)cc2-c2ccccc2C1c1ccccc1 (centres undefined)
24,159 to 160,COc1ccccc1CNCc1c(-c2ccccc2)c2cc(C)c(C)cc2c(=O)n1C

row,melting point [°C],SMILES
1,277 to 279,CNc1nc(-c2cccc(NC(=O)c3ccc(S(C)(=O)=O)cc3)c2)c2cc(OC)c(OC)cc2n1
2,106 to 107,CCOC(=O)Cn1ncc2c(Br)c(OC)ccc21
3,52 to 53.7,O=C1c2ccc(OS(=O)(=O)C(F)(F)F)cc2CCC1Cc1ccccc1 (centres undefined)
4,70 to 72,O=C(Cc1ccc(O)cc1)OCc1ccccc1
5,49 to 51,CCC1Nc2cc(F)ccc2-n2cccc21 (centres undefined)
6,240 to 241,CC(=O)Oc1ccc(-c2cnc(NS(=O)(=O)Cc3ccccc3)c(Cc3ccccc3)n2)cc1
7,80 to 82,[N-]=[N+]=Nc1ccc(S(=O)(=O)NCCc2ccc(CCO)cc2)cc1
8,140 to 142,CCOc1sc(C(=O)N2CCCC2)c2c1C(=O)C(=CO)C(C)(C)C2
9,163 to 165,ClCCc1c[nH]c(-c2ccc(OCc3ccccc3)cc2)n1
10,227 to 228,O=C(NC1CCOc2cc(C(=O)O)ccc21)OCc1ccccc1 (centres undefined)
11,292 to 294,Nc1c(F)c(N2CC3NCCOC3C2)c(F)c2c1c(=O)c(C(=O)O)cn2C1CC1F (centres undefined)
12,63 to 65,CCC1(O)c2ccccc2C=Cc2ccccc21
13,89.5 to 91.5,COCOc1cc(CCCOc2nn(Cc3ccccc3)cc2CC(=O)O)n(Cc2ccc(Cl)cc2Cl)n1
14,215 to 218,COc1cc2ncnc(N3CCc4ccc(N)cc43)c2cc1OC
15,122 to 124,CCC(CO)Nc1cc(C)nc(Oc2c(C)cc(Cl)cc2C)c1C(=O)OC (centres undefined)
16,65,CON=C(OC)C(=O)c1ncsc1C
17,90 to 91,O=C1c2ccccc2C(=O)N1CCCCCCc1cnc2ccccc2c1
18,285 to 287,O=C(O)c1csc(NC(=O)C(CC2CCCC2)c2ccc(Cl)c(Cl)c2)n1 (centres undefined)
19,236 to 237,CCC(C)(C)c1ccc2oc(-c3ccc(O)cc3)nc2c1
20,188,Cc1cccc(NC(=O)NCC(=O)N(CC(=O)O)c2ccccc2)c1
21,104 to 105,COC(=O)C1Oc2ccccc2Cc2cccc(C)c2O1 (centres undefined)
22,138 to 140,COc1cc2c(Nc3ccc(Cl)cc3F)ncnc2cc1OCCCOc1ccncc1
23,141 to 143,CCOC(=O)C1=C2COCCN2C(C)=C(C(=O)OC)C1c1ccccc1Cl (centres undefined)
24,69,COC(=O)Cc1ccc(OCc2ccc3ccccc3n2)c(OC)c1

row,melting point [°C],SMILES
1,127 to 130,CCN(CC)C(=O)OC12Oc3cc(C(C)C)ccc3C1(O)C(=O)c1ccccc12 (centres undefined)
2,124 to 126,COc1ccc(-n2c3ccccc3c3cc(C=C(C#N)c4ccc(F)c(F)c4F)ccc32)cc1
3,73 to 74,Cc1cc(S(=O)(=O)NCC(C)c2ccccc2)ccc1Cl (centres undefined)
4,254 to 255,CCn1c(=O)c2c(-c3noc(C4CC4)n3)ncn2c2cccnc21
5,160 to 162,CCS(=O)(=O)Nc1cc(-c2ncnc(C(C)C)c2Cl)c(F)cc1C#N
6,211 to 213,CCN1C(=O)C(C)(C)c2ccc(C(=O)Nc3ccc(C#N)cc3)cc21
7,150 to 158,CCOC(=O)C(=O)Nc1ccc(Oc2ccc(NC(=O)C(=O)OCC)cc2)cc1
8,> 230,Cc1cc(C(F)(F)F)ccc1NC(=O)c1c(C)cccc1NC(=O)C(C)C
9,107 to 109,C[C@@]1(CBr)OC(=O)[C@H]2CCCN2C1=O
10,43,CN1C(=O)N(CCC(NS(=O)(=O)c2ccc(-c3ccc(Cl)cc3)cc2)C(=O)O)C(=O)C1(C)C (centres undefined)
11,181 to 182,COc1ccc(Cn2cnc3c(Cl)nc([N+](=O)[O-])nc32)cc1
12,174 to 176,CCOC(=O)c1ncc2[nH]c3cccc(Oc4ccccc4)c3c2c1COC
13,146 to 148,CC(C)(C)C(=O)C=Cc1cnc2ccccc2c1
14,161 to 164,c1c(C2CC2)n[nH]c1C1CC1
15,228,Cc1ccc(-c2cncc(OC3SCC(O)C(O)C3O)c2)cc1 (centres undefined)
16,205 to 206,CCOC(=O)c1ccc2c(c1)C(=O)C(=O)N2
17,55 to 56,Brc1ccc(-c2cccs2)s1
18,209 to 210,O=C(O)[C@@H]1C[C@H](SCc2ccc(C3CCCCC3)cc2)CN1
19,230,CC(=O)CC1=C(C#N)C(c2cccc(C#N)c2Br)c2c[nH]nc2N1 (centres undefined)
20,101 to 102,CCc1oc(C2CCCCC2)nc1CC(=O)O
21,202 to 204,O=C(CC(=O)c1ccccc1)Nc1ccccc1NC(=O)CC(=O)c1ccccc1

row,SMILES,melting point [°C]
1,CCN1c2ncccc2C(C#N)=Nc2c(C)cc(C)nc21,154 to 155
2,CNC(=O)c1cc2n(n1)-c1ccc(Cl)cc1C(c1ccccc1)=NC2,170 to 172
3,O=C(NCCN1CCC2(CC1)C(=O)NCN2c1ccccc1)c1ccc(F)cc1[N+](=O)[O-],160
4,CC(=O)OCC12CCC(OC(C)=O)CC1CCC1C2CCC2(C)C(OC(=O)C(C)(C)C)CCC12O (centres undefined),155 to 156
5,CN(C)C=Cc1nc2ccc(F)cc2c(=O)n1-c1ccccc1Cl,210 to 211
6,Cc1nc(-c2ncn3c2[C@@H]2CCCN2C(=O)c2c(Cl)cccc2-3)n(C)n1,221 to 222
